The source of these data is patent US8889173B2, “Alpha adrenergic receptor agonists for treatment of pain and/or inflammation” (Warsaw Orthopedic, Inc., priority 2008, dated 2014).

For assay [1], the system named is rat Chronic Constriction Injury model (Bennett Model). Briefly: von Frey monofilament test of mechanical allodynia (mechanical threshold) in rat chronic constriction injury model. The assay is classed as in vivo, Wistar rat. The text has this:
(§1) The inventors evaluated the efficacy of a various alpha-2-adrenergic receptor agonists and compared them against saline in the rat Chronic Constriction Injury model (i.e., Bennett Model) using Wistar rats. […] The doses given would mimic those achievable by a continuous release drug depot containing a biodegradable polymer (7 rats in each group).
(§2) Each group received the treatment indicated above for total of 15 days and subjected to the following two tests: (1) the Hargreaves test on days 7 and 14; and (2) the von Frey test on days 8 and 15.
(§3) Results from another rat chronic constriction injury model study similar to that discussed in Example 5, except some drug compositions having predominantly alpha 1 agonist activity and some drug compositions having predominantly alpha 2 agonist activity were given as indicated in the table below. The doses given would mimic those achievable by a continuous release drug depot containing a biodegradable polymer (7 rats in each group).
(§4) Each group received the treatment indicated above for total of 14 days and the following two tests: (1) the Hargreaves test on days 7 and 14; and (2) the von Frey test on days 8 and 15.

Assay [2] has the same test system. Briefly: Hargreaves test of thermal hyperalgesia (thermal paw withdrawal latency) in rat chronic constriction injury model. It counts as in vivo, Wistar rat.
Text: as §1, §2, §3, §4

Where [3] appears, read: 5 mg/kg subcutaneous every day for 15 days, day 15, vs saline.
Where [4] appears, read: 100 micrograms/kg subcutaneous every day for 15 days, days 7 and 14, FIG. 36.

Structures are written as SMILES.

`CNC[C@H](O)c1cccc(O)c1` [phenylephrine]: the “pain behavioral response for mechanical allodynia” value in assay [1] (10 mg/kg subcutaneous every day, day 8, vs saline, FIG. 38) is “decreased mechanical allodynia”. The “pain behavioral response for thermal hyperalgesia” value in assay [2] (2 mg/kg subcutaneous every day for 15 days, day 7, FIG. 37) is given as “statistically significant result of decreasing pain responses”; in assay [2] (10 mg/kg subcutaneous every day for 15 days, days 7 and 14, FIG. 37), “statistically significant result of decreasing pain responses”.

For the compound `N=C(N)NC(=O)Cc1c(Cl)cccc1Cl` [guanfacine], the “pain behavioral response for mechanical allodynia” value in assay [1] (setting [3]) is listed as “statistically significant results of decreasing pain responses”. Besides, in assay [2] (5 mg/kg subcutaneous every day for 15 days, days 7 and 14, FIG. 36), the “pain behavioral response for thermal hyperalgesia” value is recorded as “statistically significant result of decreasing pain responses”.

For `Clc1ccc2nsnc2c1NC1=NCCN1` [tizanidine], the “pain behavioral response for mechanical allodynia” value in assay [1] (100 micrograms/kg subcutaneous every day for 15 days, day 15, vs saline, FIG. 35) was “statistically significant results of decreasing pain responses”. For the same compound, in assay [2] (setting [4]), the “pain behavioral response for thermal hyperalgesia” value is “statistically significant result of decreasing pain responses”.

Take `Cc1cc(C(C)(C)C)c(O)c(C)c1CC1=NCCN1` [oxymetazoline]: the “pain behavioral response for mechanical allodynia” value is “decreasing pain responses” in assay [1] (0.1 mg/kg subcutaneous every day for 15 days, day 8 and 15, vs saline group, FIG. 38); “decreasing pain responses” in assay [1] (0.3 mg/kg subcutaneous every day for 15 days, day 8 and 15, vs saline group, FIG. 38). For the same compound, the “pain behavioral response for thermal hyperalgesia” value in assay [2] (0.1 mg/kg subcutaneous every day for 15 days, day 7, FIG. 37) is “statistically significant result of decreasing pain responses”; in assay [2] (0.3 mg/kg subcutaneous every day for 15 days, days 7 and 14, FIG. 37) it was “statistically significant result of decreasing pain responses”.

As for `Cc1cccc(C(C)c2cnc[nH]2)c1C` (centres unmarked) [medetomidine], the “pain behavioral response for mechanical allodynia” value in assay [1] (200 micrograms/kg subcutaneous every day for 15 days, day 15, vs saline, FIG. 35) was “statistically significant results of decreasing pain responses”. Besides, the “pain behavioral response for thermal hyperalgesia” value in assay [2] (setting [4]) is “statistically significant result of decreasing pain responses”; in assay [2] (200 micrograms/kg subcutaneous every day for 15 days, day 14, FIG. 36) it was “statistically significant result of decreasing pain responses”.

Consider `N=C(N)N/N=C/c1c(Cl)cccc1Cl` [guanabenz], for which the “pain behavioral response for mechanical allodynia” value is “decreased mechanical allodynia” in assay [1] (1 mg/kg subcutaneous every day, day 8, vs saline, FIG. 38) and “decreased mechanical allodynia” in assay [1] (setting [3]). Besides, the “pain behavioral response for thermal hyperalgesia” value in assay [2] (1 mg/kg subcutaneous every day for 15 days, day 7, FIG. 37) is reported as “statistically significant result of decreasing pain responses”.

`Clc1cccc(Cl)c1N=C1NCCN1` [clonidine, 2,6-dichloro-N-2-imidazolidinyldenebenzenamine]: the “pain behavioral response for mechanical allodynia” value in assay [1] (0.02 mg/kg subcutaneous every day for 15 days, day 15, vs saline, FIG. 35) is recorded as “statistically significant results of decreasing pain responses”. Further, the “pain behavioral response (measured as a percentage of baseline) for mechanical allodynia” value in assay [1] (0.02 mg/kg/day subcutaneously, compared to unloaded polymer depots, FIG. 4) was “reduced the behavioral response”. In addition, the “pain behavioral response for thermal hyperalgesia” value in assay [2] (0.02 mg/kg subcutaneous every day for 15 days, days 7 and 14) is given as “statistically significant result of decreasing pain responses”.
